Where only a bound is given, the exact number is not on record here.

Data set [1] has as its target T1, Y2 receptor (Homo sapiens, UniProt P49146).
T1 sequence (P49146 1-381): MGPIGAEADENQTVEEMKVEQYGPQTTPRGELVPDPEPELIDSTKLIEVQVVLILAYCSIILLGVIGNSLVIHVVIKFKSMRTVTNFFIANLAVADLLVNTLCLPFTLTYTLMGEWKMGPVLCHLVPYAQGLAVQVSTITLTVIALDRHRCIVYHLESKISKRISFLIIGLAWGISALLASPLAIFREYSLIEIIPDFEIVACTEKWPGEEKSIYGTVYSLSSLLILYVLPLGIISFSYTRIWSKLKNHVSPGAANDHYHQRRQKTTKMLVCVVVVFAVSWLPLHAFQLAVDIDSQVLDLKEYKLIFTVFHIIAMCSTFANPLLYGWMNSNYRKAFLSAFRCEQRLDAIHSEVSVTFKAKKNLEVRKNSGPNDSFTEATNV
Description: Y2 receptor binding assay ([125I]PYY, membrane protein). The conditions noted are these: [125I]PYY, membrane protein; read-out: hNPY2 IC50. The method in brief: (§1)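 Filtration binding with membrane protein and drug dilution, 2 h at room temperature with mixing, radioactivity counted by gamma or scintillation. Y2: 25 pM [125I]PYY in Krebs-Ringer bicarbonate pH 7.4 with 0.01% BSA, nonspecific by 1 μM NPY. Y4/PP1: 50 pM [125I]hPP in HEPES-buffered saline pH 7.4 with protease inhibitors and 0.3% BSA, nonspecific by 1 μM hPP.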

The target in data set [2] is human Y4/PP1 receptor (Homo sapiens, UniProt P50391). Nature of the data set: Human Y4/PP1 receptor binding assay ([125I]human PP, membrane protein). The conditions noted are these: [125I]human PP, membrane protein; read-out: hNPY4 IC50. The method in brief: as §1
The target of data set [3] is T2, Human NPY5 receptor (Homo sapiens, UniProt Q15761).
T2 sequence (Q15761 1-445): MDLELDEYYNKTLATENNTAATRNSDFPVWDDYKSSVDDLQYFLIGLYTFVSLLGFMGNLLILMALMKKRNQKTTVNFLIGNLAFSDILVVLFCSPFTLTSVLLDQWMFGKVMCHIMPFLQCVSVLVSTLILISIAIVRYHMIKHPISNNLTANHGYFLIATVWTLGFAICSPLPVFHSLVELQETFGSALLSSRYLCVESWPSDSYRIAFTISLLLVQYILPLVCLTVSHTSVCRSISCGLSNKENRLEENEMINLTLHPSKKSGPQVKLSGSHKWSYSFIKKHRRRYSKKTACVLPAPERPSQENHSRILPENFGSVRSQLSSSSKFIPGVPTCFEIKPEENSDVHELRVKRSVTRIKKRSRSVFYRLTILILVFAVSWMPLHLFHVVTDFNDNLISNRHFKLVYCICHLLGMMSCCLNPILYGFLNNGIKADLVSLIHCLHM
Description: Human NPY5 receptor binding assay ([125I]PYY, membrane protein). The conditions noted are these: [125I]PYY, read-out: hNPY5 IC50. In outline:
(§2)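 Compounds compete with porcine [125I]PYY (75-100 pM) for receptor sites on membrane protein over a 2 hour room-temperature incubation at pH 7.4. Unlabelled PYY at 1 μM defines nonspecific binding, and filter-retained radioactivity gives the read-out.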

Data set [4] has as its target T3, Human NPY1 receptor (Homo sapiens, UniProt P25929).
T3 construct: host or cells: SK-N-MC cells
T3 sequence (P25929 1-384): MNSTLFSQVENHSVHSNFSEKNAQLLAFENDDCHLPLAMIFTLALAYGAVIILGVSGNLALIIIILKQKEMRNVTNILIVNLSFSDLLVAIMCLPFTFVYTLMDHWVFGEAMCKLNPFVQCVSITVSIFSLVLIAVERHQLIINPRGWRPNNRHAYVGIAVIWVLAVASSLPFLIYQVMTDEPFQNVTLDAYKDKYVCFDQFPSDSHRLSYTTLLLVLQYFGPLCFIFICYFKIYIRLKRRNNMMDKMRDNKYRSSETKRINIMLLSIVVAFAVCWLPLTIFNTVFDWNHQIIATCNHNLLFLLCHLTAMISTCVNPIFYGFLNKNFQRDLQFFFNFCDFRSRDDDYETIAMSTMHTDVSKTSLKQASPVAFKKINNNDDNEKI
Description: Human NPY1 receptor binding assay ([125I]PYY, SK-N-MC cells). The conditions noted are these: [125I]PYY, SK-N-MC cells; read-out: hNPYI IC50. In outline: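 Whole-cell competition with ~50 pM [125I]PYY on SK-N-MC monolayers, 3 h at room temperature after 30 min preincubation in HEPES-buffered (pH 7.3) serum-free DMEM containing protease inhibitors. Gamma counting of cell lysates; 1 μM NPY gave nonspecific binding.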

The target in data set [5] is T4, Rat NPY5 receptor (Rattus norvegicus, UniProt Q63634).
T4 sequence (Q63634 1-445): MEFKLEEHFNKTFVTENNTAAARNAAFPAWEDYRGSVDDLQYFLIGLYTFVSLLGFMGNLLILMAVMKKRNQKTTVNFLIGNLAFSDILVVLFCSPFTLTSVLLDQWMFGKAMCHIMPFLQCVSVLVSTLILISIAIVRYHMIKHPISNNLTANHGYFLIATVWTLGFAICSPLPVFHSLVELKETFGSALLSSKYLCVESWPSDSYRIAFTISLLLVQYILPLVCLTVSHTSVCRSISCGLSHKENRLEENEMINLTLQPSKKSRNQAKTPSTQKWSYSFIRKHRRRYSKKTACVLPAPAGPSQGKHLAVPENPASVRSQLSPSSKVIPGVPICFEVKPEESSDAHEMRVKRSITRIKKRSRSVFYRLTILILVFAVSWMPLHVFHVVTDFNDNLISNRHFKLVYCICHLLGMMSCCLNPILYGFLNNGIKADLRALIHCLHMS
Nature of the data set: Rat NPY5 receptor binding assay ([125I]PYY, membrane protein). The conditions noted are these: [125I]PYY, read-out: rNPY5 IC50. In outline:
as §2

Data set [6] deals with T4, Rat NPY5 receptor. Nature of the data set: Rat NPY5 cyclase assay (in vitro functional assay, forskolin-stimulated adenylate cyclase, cAMP). The conditions noted are these: 20 min; 10 μM; percentage of forskolin-stimulated adenylate cyclase; read-out: rNPY5 % FSAC (10 μM). The data set is classed as cell-based. In outline: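 Cells stably expressing rat NPY5 receptor, in serum-free DMEM with 10 mM HEPES pH 7.4 and 1 mM IBMX, received […] plus compound for 20 min at 37 °C. Reactions were stopped by boiling. cAMP was quantified by radioimmunoassay and expressed as % of forskolin-stimulated adenylate cyclase.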

Sequence of human Y4/PP1 receptor (P50391 whole entry): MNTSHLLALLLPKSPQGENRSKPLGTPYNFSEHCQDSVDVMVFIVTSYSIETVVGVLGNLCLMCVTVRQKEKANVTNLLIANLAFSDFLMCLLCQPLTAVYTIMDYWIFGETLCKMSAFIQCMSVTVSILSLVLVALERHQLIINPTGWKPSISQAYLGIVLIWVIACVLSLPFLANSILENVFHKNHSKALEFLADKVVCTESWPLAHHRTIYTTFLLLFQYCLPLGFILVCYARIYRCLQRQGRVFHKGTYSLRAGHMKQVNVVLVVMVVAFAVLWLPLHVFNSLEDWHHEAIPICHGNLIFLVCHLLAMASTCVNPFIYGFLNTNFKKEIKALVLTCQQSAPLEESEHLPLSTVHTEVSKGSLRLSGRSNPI

A word on the melting point: it is the temperature, or range, at which the solid turns liquid. For orientation: IC50 means the midpoint of a concentration-inhibition curve. With `CC(=O)NC1CCN(CC(=O)Nc2ccc(C3CCCCC3)cc2)C1` (stereo not drawn) [Compound 290, 2-(3-Acetylamino-pyrrolidin-1-yl)-N-(4-cyclohexyl-phenyl)-acetamide], the melting point is 105 to 110 °C. Also, in data set [1], the IC50 was above 5 µM. Besides, in data set [2], the IC50 is above 5 µM. In addition, the IC50 in data set [3] came out at 38 nM. The concentration for half-maximal inhibition (IC50) in data set [4] was above 5 µM. The IC50 in data set [5] was found to be 19 nM. Also, in data set [6], the activity at 10 µM is 101%.
Regarding `CC(=O)NC1CCN(CC(=O)Nc2ccc(C(=O)c3ccccc3)cc2)C1.O=C(O)C(=O)O` (stereo not drawn) [Compound 304, 2-(3-Acetylamino-pyrrolidin-1-yl)-N-(4-benzoyl-phenyl)-acetamide; compound with oxalic acid], the melting point was 100 °C. The IC50 in data set [1] is above 5 µM. Further, in data set [2], the IC50 is above 5 µM. Besides, the IC50 in data set [3] was 150 nM. For the same compound, the IC50 in data set [4] was above 5 µM. In addition, the IC50 in data set [5] was found to be 180 nM. Besides, the activity at 10 µM in data set [6] was found to be 85%.
The compound `CCNC1(C(N)=O)CCN(CC(=O)Nc2ccc(C3CCCCC3)cc2)CC1.O=C(O)C(=O)O` [Compound 302, 1-[(4-Cyclohexyl-phenylcarbamoyl)-methyl]-4-ethylamino-piperidine-4-carboxylic acid amide; compound with oxalic acid] gave a melting point of 184 °C. Moreover, in data set [1], the IC50 is above 5 µM. For the same compound, the IC50 in data set [2] was above 5 µM. The IC50 in data set [3] was found to be 6 nM. Further, in data set [4], the IC50 was above 5 µM. The concentration for half-maximal inhibition (IC50) in data set [5] was 6 nM. Besides, the activity at 10 µM in data set [6] stood at 107%.

For the origin of these results see US6410792B1, “Amide derivatives and methods for using the same as selective neuropeptide Y receptor antagonists” (Bayer Corporation, priority 1997, dated 2002).
